Test results: ChEMBL document CHEMBL5725801, “Fused heterocyclic compounds as CaM kinase inhibitors” (2018)

Experiment: CaMKII Cell-Based Activity: CaMKII activity in neonatal rat ventricular myocytes (NRVM) was measured by monitoring the phosphorylation level of phospholamban using high-content imaging. NRVMs were plated in a clear bottom 384-well plate in medium supplemented with 10% fetal bovine serum (FBS) and incubated at 37° C., 5% CO2 overnight. The medium was changed to a serum-free medium and compounds were dosed to the cells. The cells were incubated at 37° C., 5% CO2 for 4 hours and were then treated with 100 nM ATX-II (Alomone Labs) to activate CaMKII. 10 minutes after the addition of ATX-II, the cells were fixed with 4% formaldehyde followed by permeabilization with 0.1% triton X100. The fixed cells were stained with an anti-phospho-phospholamban primary antibody (Santa Cruz Biotechnology) and an Alexa488-labeled anti-rabbit IgG secondary antibody (Life Technologies Corporation) as well as Hoechst 33342 (Life Technologies Corporation). The cells were imaged using an ArrayScan VTI (Cellomics) and analyzed for cells containing a positive fluorescent signal at 485 nm, reported as % responder. The % responders were plotted against the compound concentration to determine the compounds EC50.

| SMILES | EC50 [nM] |
| --- | --- |
| CCN(CC)[C@@H](C)CNC(=O)c1cc(-c2cnn3ccc(-c4cccs4)nc23)nc(N2CCC(O)CC2)c1 | 46.6 |
| CCN(CC)[C@@H](C)CNC(=O)c1cc(-c2cnn3ccc(-c4cccs4)nc23)nc(N2CC(O)C2)c1 | 17.7 |
| CCN(CC)[C@@H](C)CNC(=O)c1cc(-c2cnn3ccc(-c4cccs4)nc23)nc(N(C)C)c1 | 40.8 |
| CCN(CC)[C@@H](C)CNC(=O)c1cc(-c2cnn3ccc(-c4cccs4)nc23)nc(N2CC(OC)C2)c1 | 13.7 |
| CCN[C@@H](C)CNC(=O)c1cc(Cl)nc(-c2cnn3ccc(-c4ccccc4)nc23)c1 | 13.8 |
| COc1cc(C(=O)N2CCCC[C@H]2CN)cc(-c2cnn3ccc(-c4ccccc4)nc23)n1 | 288 |
| CCN[C@@H](C)CNC(=O)c1cc(-c2cnn3ccc(-c4cccs4)nc23)nc(N2CC(O)C2)c1 | 604 |
| CCC(=O)Nc1cc(C(=O)NC[C@H](C)N(CC)CC)cc(-c2cnn3ccc(-c4cccs4)nc23)n1 | 48.8 |
| CCN(CC)[C@@H](C)CNC(=O)c1cc(NS(=O)(=O)C(C)C)nc(-c2cnn3ccc(-c4cccs4)nc23)c1 | 115 |
| CCN(CC)[C@@H](C)CNC(=O)c1cc(NCCN(C)C)nc(-c2cnn3ccc(-c4ccccc4)nc23)c1 | 31.9 |
| COc1cc(C(=O)N2CCCC[C@@H]2CN)cc(-c2cnn3ccc(-c4ccccc4)nc23)n1 | 316 |
| CCN(CC)[C@@H](C)CNC(=O)c1cc(NCC2(N3CCCC3)COC2)nc(-c2cnn3ccc(-c4cccs4)nc23)c1 | 232 |
| CCOC(=O)Nc1cc(C(=O)NC[C@H](C)N(CC)CC)cc(-c2cnn3ccc(-c4cccs4)nc23)n1 | 143 |
| CCN(CC)[C@@H](C)CNC(=O)c1cc(-c2cnn3ccc(-c4cccs4)nc23)nc(N2CC(S(=O)(=O)NC)C2)c1 | 50.5 |
| CCN[C@@H](C)CNC(=O)c1cc(-c2cnn3ccc(-c4cccs4)nc23)nc(N2CC(OC)C2)c1 | 90.5 |
| Cc1cc(C(=O)N2CCC[C@@H]2CN)cc(-c2cnn3ccc(-c4ccccc4)nc23)n1 | 211 |
| CCN(CC)[C@@H](C)CNC(=O)c1cc(-c2cnn3ccc(-c4cccs4)nc23)nc(N2CCC(O)C(F)(F)C2)c1 (stereo not given in full) | 65.5 |
| CCN(CC)[C@@H](C)CNC(=O)c1cc(-c2cnn3ccc(-c4cccs4)nc23)nc(N2CC(NS(=O)(=O)Cc3ccon3)C2)c1 | 27 |
| CCN(CC)[C@@H](C)CNC(=O)c1cc(-c2cnn3ccc(-c4ccns4)nc23)nc(N2CC(OC)C2)c1 | 13.9 |
| CCN(CC)[C@@H](C)CNC(=O)c1cc(-c2cnn3ccc(-c4cccs4)nc23)nc(N2CCC(C)(O)CC2)c1 | 46 |
| CN(C)c1cc(C(=O)N2CCCC[C@H]2CN)cc(-c2cnn3ccc(-c4ccccc4)nc23)n1 | 418 |
| CCN(CC)[C@@H](C)CNC(=O)c1cc(-c2cnn3ccc(-c4cccs4)nc23)nc(N2CC(S(=O)(=O)NC3CC3)C2)c1 | 51 |
| CCN(CC)[C@@H](C)CNC(=O)c1cc(N)nc(-c2cnn3ccc(-c4ccccc4)nc23)c1 | 25 |
| CCN(CC)[C@@H](C)CNC(=O)c1cc(-c2cnn3ccc(-c4ccsc4)nc23)nc(N2CC(OC)C2)c1 | 14.9 |
| Cc1cnc(-c2cnn3ccc(-c4ccccc4)nc23)cc1C(=O)N1CCCC[C@@H]1[C@@H](C)N | 66.4 |
| CN(C)c1cc(C(=O)N2CCCC[C@@H]2CN)cc(-c2cnn3ccc(-c4ccccc4)nc23)n1 | 53.2 |
| NC[C@H]1CCCCN1C(=O)c1cc(-c2cnn3ccc(-c4ccccc4)nc23)nc(C2CC2)c1 | 29.2 |

| SMILES | EC50 [nM] |
| --- | --- |
| CCN[C@@H](C)CNC(=O)c1cc(-c2cnn3ccc(-c4ccccc4)nc23)nc(C2CC2)c1 | 15.3 |
| Cc1cnc(-c2cnn3ccc(-c4ccccc4)nc23)cc1C(=O)N1CCCC[C@@H]1CN | 33.3 |
| CCN(CC)[C@@H](C)CNC(=O)c1cc(-c2cnn3ccc(-c4ccccc4)nc23)nc(N2CC(OC)C2)c1 | 16.9 |
| CCN(CC)[C@@H](C)CNC(=O)c1cc(-c2cnn3ccc(-c4cccs4)nc23)nc(N2CC(NS(=O)(=O)CC)C2)c1 | 25.7 |
| CCN(CC)[C@@H](C)CNC(=O)c1cc(NS(=O)(=O)C2CC2)nc(-c2cnn3ccc(-c4cccs4)nc23)c1 | 95.9 |
| CCN[C@@H](C)CNC(=O)c1cc(CC)nc(-c2cnn3ccc(-c4ccccc4)nc23)c1 | 170 |
| CCN(CC)[C@@H](C)CNC(=O)c1cc(-c2cnn3ccc(-c4cccs4)nc23)nc(N(C)S(C)(=O)=O)c1 | 9.6 |
| NC[C@@H]1CCCCN1C(=O)c1cc(Cl)nc(-c2cnn3ccc(-c4ccccc4)nc23)c1 | 213 |
| NC[C@@H]1CCCCN1C(=O)c1cc(Cl)nc(-c2cnn3ccc(-c4cccs4)nc23)c1 | 243 |
| Nc1cc(C(=O)N2C3CCNCC2CC3)cc(-c2cnn3ccc(-c4ccccc4)nc23)n1 (stereo not given) | 606 |
| CCN(CC)[C@@H](C)CNC(=O)c1cc(-c2cnn3ccc(-c4cccs4)nc23)nc(N2CCC2)c1 | 40.2 |
| C[C@H](N)CNC(=O)c1cc(-c2cnn3ccc(-c4cccs4)nc23)nc(N2CC(O)C2)c1 | 2480 |
| NC[C@H]1CCCCN1C(=O)c1cc(Cl)nc(-c2cnn3ccc(-c4cccs4)nc23)c1 | 23.7 |
| NC[C@H]1CCCCN1C(=O)c1cc(-c2cnn3ccc(-c4ccccc4)nc23)ncc1N | 23.3 |
| CCN(CC)[C@@H](C)CNC(=O)c1cc(-c2cnn3ccc(-c4cccs4)nc23)nc(N2CC(NS(=O)(=O)C(C)C)C2)c1 | 31.5 |
| CCN(CC)[C@@H](C)CNC(=O)c1cc(-c2cnn3ccc(-c4cccs4)nc23)nc(N2CC(F)C2)c1 | 20.5 |
| CCN(CC)[C@@H](C)CNC(=O)c1cc(NC(=O)C2CC2)nc(-c2cnn3ccc(-c4cccs4)nc23)c1 | 27.4 |
| NC[C@H]1CCCCN1C(=O)c1cc(-c2cnn3ccc(-c4ccccc4)nc23)nc(C(F)(F)F)c1 | 65.2 |
| CCN(CC)[C@@H](C)CNC(=O)c1cc(-c2cnn3ccc(-c4cccs4)nc23)nc(N2CC(C)(C)C2)c1 | 93.8 |
| Nc1cc(C(=O)N2C3CCNCC2CC3)cc(-c2cnn3ccc(-c4cccs4)nc23)n1 (stereo not given) | 111 |
| CC(C)(C)c1cc(C(=O)N2CCCC[C@@H]2CN)cc(-c2cnn3ccc(-c4ccccc4)nc23)n1 | 46.6 |
| CCN[C@@H](C)CNC(=O)c1cc(-c2cnn3ccc(-c4ccccc4)nc23)nc(N2CC(OC)C2)c1 | 145 |
| CCN(CC)[C@@H](C)CNC(=O)c1cc(NC(=O)OC(C)C)nc(-c2cnn3ccc(-c4cccs4)nc23)c1 | 39.8 |
| CN(C)c1cc(C(=O)N2CC[C@H](N)C2)cc(-c2cnn3ccc(-c4ccccc4)nc23)n1 | 841 |
| CCN(CC)[C@@H](C)CNC(=O)c1cc(NS(=O)(=O)CC)nc(-c2cnn3ccc(-c4cccs4)nc23)c1 | 126 |
| CCN[C@@H](C)CNC(=O)c1cc(-c2cnn3ccc(-c4ccccc4)nc23)nc(C(C)C)c1 | 19.5 |
| COc1cc(C(=O)N2CC[C@H](N)C2)cc(-c2cnn3ccc(-c4cccs4)nc23)n1 | 145 |

| SMILES | EC50 [nM] |
| --- | --- |
| CCN[C@@H](C)CNC(=O)c1cc(N)nc(-c2cnn3ccc(-c4ccccc4)nc23)c1 | 113 |
| CCN(CC)[C@@H](C)CNC(=O)c1cc(-c2cnn3ccc(-c4cccs4)nc23)nc(N2CC(S(C)(=O)=O)C2)c1 | 31.3 |
| COC1CN(c2cc(C(=O)NCC34CCCN3CCC4)cc(-c3cnn4ccc(-c5ccccc5)nc34)n2)C1 | 69.6 |
| Cc1cc(C(=O)N2CCCC[C@@H]2CN)cc(-c2cnn3ccc(-c4ccccc4)nc23)n1 | 52.8 |
| CCN(CC)[C@@H](C)CNC(=O)c1cc(-c2cnn3ccc(-c4cccs4)nc23)nc(N2CC(C#N)C2)c1 | 9.07 |
| NC[C@H]1CCCCN1C(=O)c1cc(-c2cnn3ccc(-c4ccccc4)nc23)ncc1Cl | 35.2 |
| COC1CN(c2cc(C(=O)NC[C@H](C)N)cc(-c3cnn4ccc(-c5cccs5)nc34)n2)C1 | 139 |
| CCN(CC)[C@@H](C)CNC(=O)c1cc(NCCN(C)C)nc(-c2cnn3ccc(-c4cccs4)nc23)c1 | 59 |
| CCN[C@@H](C)CNC(=O)c1cc(C)nc(-c2cnn3ccc(-c4ccccc4)nc23)c1 | 284 |
| CCN(CC)[C@@H](C)CNC(=O)c1cc(-c2cnn3ccc(-c4cccs4)nc23)nc(C(F)(F)F)c1 | 102 |
| CCN(CC)[C@@H](C)CNC(=O)c1cc(-c2cnn3ccc(-c4cccs4)nc23)nc(N2CC(NS(=O)(=O)C3CC3)C2)c1 | 28.1 |
| CCN(CC)[C@@H](C)CNC(=O)c1cc(-c2cnn3ccc(-c4cccs4)nc23)nc(N2CC(C(F)(F)F)C2)c1 | 54.4 |
| CNc1cnc(-c2cnn3ccc(-c4ccccc4)nc23)cc1C(=O)N1CCCC[C@@H]1CN | 21.8 |
| CCN(CC)[C@@H](C)CNC(=O)c1cc(-c2cnn3ccc(-c4cccs4)nc23)nc(N2CCNC2=O)c1 | 150 |
| CCN(CC)[C@@H](C)CNC(=O)c1cc(NS(C)(=O)=O)nc(-c2cnn3ccc(-c4cccs4)nc23)c1 | 107 |
| CCN(CC)[C@@H](C)CNC(=O)c1cc(-c2cnn3ccc(-c4cccs4)nc23)nc(N2CC(F)(F)C2)c1 | 17.3 |
| COc1cc(C(=O)N2CC[C@H](N)C2)cc(-c2cnn3ccc(-c4ccccc4)nc23)n1 | 471 |
| NC[C@H]1CCCCN1C(=O)c1cc(Cl)nc(-c2cnn3ccc(-c4ccccc4)nc23)c1 | 33.7 |
| CCN(CC)[C@@H](C)CNC(=O)c1cc(NC(=O)C(C)C)nc(-c2cnn3ccc(-c4cccs4)nc23)c1 | 20.5 |
| CN(C)c1cc(C(=O)N2CC[C@H](N)C2)cc(-c2cnn3ccc(-c4cccs4)nc23)n1 | 212 |
| CCN(CC)[C@@H](C)CNC(=O)c1cc(-c2cnn3ccc(-c4cccs4)nc23)nc(N2CC(OC(F)F)C2)c1 | 19.9 |
| CCN(CC)[C@@H](C)CNC(=O)c1cc(-c2cnn3ccc(-c4cccs4)nc23)nc(N2CCn3ccnc3C2)c1 | 121 |
| CCN(CC)[C@@H](C)CNC(=O)c1cc(-c2cnn3ccc(-c4cccs4)nc23)nc(N2CCCS2(=O)=O)c1 | 11.2 |
| CCN(CC)[C@@H](C)CNC(=O)c1cc(-c2cnn3ccc(-c4cncnc4)nc23)nc(N2CC(OC)C2)c1 | 519 |
| COC1CN(c2cc(C(=O)NC[C@H](C)N)cc(-c3cnn4ccc(-c5ccccc5)nc34)n2)C1 | 122 |
| CCOC1CN(c2cc(C(=O)NC[C@H](C)N(CC)CC)cc(-c3cnn4ccc(-c5cccs5)nc34)n2)C1 | 9.45 |
